The supplement of paper PMC13380429

Key:
A549-ACE2 [1] = experiment: phospholipidosis EC50; higher = less potent phospholipidosis inducer
Calu-3 [2] = experiment: relative viability EC50 (midpoint between 100% and the lowest measured viability); higher = less toxic; conditions: 72 h
Vero E6 [3] = experiment: as above; conditions: 72 h
Caco-2 [4] = experiment: drug sensitivity score (DSS) for viability; higher = more toxic; extreme values may be limits of the assay; conditions: 72 h
U2OS [5] = experiment: as above; conditions: 72 h
HepG2 [6] = experiment: as above; conditions: 72 h
Calu-3 [7] = experiment: as above; conditions: 72 h
Vero E6 [8] = experiment: as above; conditions: 72 h
Caco-2 [9] = experiment: cell viability relative to DMSO; higher = less toxic; conditions: 72 h
U2OS [10] = experiment: as above; conditions: 72 h
HepG2 [11] = experiment: as above; conditions: 72 h
Calu-3 [12] = experiment: as above; conditions: 72 h
Vero E6 [13] = experiment: as above; conditions: 72 h
[14] = tested on: A549-ACE2 infected with SARS-CoV-2; experiment: morphology score (similarity to uninfected cells); higher = more like uninfected cells; conditions: 24 h
A549-ACE2 [15] = experiment: drug-induced phospholipidosis relative to tamoxifen; higher = more phospholipidosis
[16] = tested on: A549-ACE2 infected with SARS-CoV-2; experiment: cell count relative to DMSO; higher = less toxic; conditions: 24 h
[17] = tested on: A549-ACE2 infected with SARS-CoV-2; experiment: SARS-CoV-2 infection rate relative to DMSO; higher = more infection; conditions: 24 h
Caco-2 [18] = experiment: relative viability EC50 (midpoint between 100% and the lowest measured viability); higher = less toxic; conditions: 72 h
U2OS [19] = experiment: as above; conditions: 72 h
HepG2 [20] = experiment: as above; conditions: 72 h

O=[N+]([O-])c1ccccc1S(=O)(=O)NCC1CCC(CNC[C@H]2CCc3ccccc3C2)CC1 (stereo not given in full) [NTNCB]
Conditions	SARS-CoV-2 infection rate [%]	cell count [%]	cell viability [%]	morphology score	phospholipidosis EC50 [µM]
A549-ACE2 [1], 24 h	–	–	–	–	1.46
A549-ACE2 [1], 48 h	–	–	–	–	3.21
A549-ACE2 [1], 72 h	–	–	–	–	5.01
Caco-2 [9], 1 nM	–	–	93.7	–	–
Caco-2 [9], 10 nM	–	–	95.2	–	–
Caco-2 [9], 100 nM	–	–	98.8	–	–
Caco-2 [9], 1000 nM	–	–	86.6	–	–
Caco-2 [9], 10000 nM	–	–	64.8	–	–
Calu-3 [12], 1 nM	–	–	104	–	–
Calu-3 [12], 10 nM	–	–	103	–	–
Calu-3 [12], 100 nM	–	–	96.6	–	–
Calu-3 [12], 1000 nM	–	–	105	–	–
Calu-3 [12], 10000 nM	–	–	15	–	–
HepG2 [11], 1 nM	–	–	99.1	–	–
HepG2 [11], 10 nM	–	–	96.6	–	–
HepG2 [11], 100 nM	–	–	91	–	–
HepG2 [11], 1000 nM	–	–	101	–	–
HepG2 [11], 10000 nM	–	–	57.1	–	–
U2OS [10], 1 nM	–	–	96.2	–	–
U2OS [10], 10 nM	–	–	93	–	–
U2OS [10], 100 nM	–	–	99.6	–	–
U2OS [10], 1000 nM	–	–	94.9	–	–
U2OS [10], 10000 nM	–	–	72.5	–	–
Vero E6 [13], 1 nM	–	–	94.9	–	–
Vero E6 [13], 10 nM	–	–	95.3	–	–
Vero E6 [13], 100 nM	–	–	89.8	–	–
Vero E6 [13], 1000 nM	–	–	94.5	–	–
Vero E6 [13], 10000 nM	–	–	79.2	–	–
[14], 0.1 µM	–	–	–	0.29	–
[14], 0.3 µM	–	–	–	-0.23	–
[14], 1 µM	–	–	–	0.28	–
[14], 3 µM	–	–	–	0.73	–
[16], 0.1 µM	–	101	–	–	–
[16], 0.3 µM	–	99	–	–	–
[16], 1 µM	–	103	–	–	–
[16], 3 µM	–	119	–	–	–
[17], 0.1 µM	90	–	–	–	–
[17], 0.3 µM	102	–	–	–	–
[17], 1 µM	84	–	–	–	–
[17], 3 µM	36	–	–	–	–

Conditions	drug sensitivity score	relative viability EC50 [µM]
Caco-2 [4]	3.3	–
Calu-3 [2]	–	3.49
Calu-3 [7]	4.3	–
HepG2 [6]	2.1	–
U2OS [5]	1.9	–
Vero E6 [3]	–	> 10
Vero E6 [8]	0.9	–

drug-induced phospholipidosis [%], A549-ACE2 [15]
Conditions	0.3 µM	0.833333 µM	3.33333 µM	6.66667 µM	10 µM	30 µM
24 h	2.25	13.4	66.1	101	91.2	45.6
48 h	4.73	11.2	54.3	93.7	117	42.7
72 h	6.41	10.5	45.9	102	126	–

Cc1cc(Nc2ccc(NC(=O)c3ccc(Nc4ccnc5ccccc45)cc3)cc2)nc(N)n1 [SGI-1027]
Conditions	SARS-CoV-2 infection rate [%]	cell count [%]	cell viability [%]	morphology score	phospholipidosis EC50 [µM]
A549-ACE2 [1], 24 h	–	–	–	–	2.95
A549-ACE2 [1], 48 h	–	–	–	–	3.26
A549-ACE2 [1], 72 h	–	–	–	–	3.61
Caco-2 [9], 1 nM	–	–	103	–	–
Caco-2 [9], 10 nM	–	–	114	–	–
Caco-2 [9], 100 nM	–	–	103	–	–
Caco-2 [9], 1000 nM	–	–	99.4	–	–
Caco-2 [9], 10000 nM	–	–	13.1	–	–
Calu-3 [12], 1 nM	–	–	106	–	–
Calu-3 [12], 10 nM	–	–	109	–	–
Calu-3 [12], 100 nM	–	–	112	–	–
Calu-3 [12], 1000 nM	–	–	106	–	–
Calu-3 [12], 10000 nM	–	–	2.8	–	–
HepG2 [11], 1 nM	–	–	110	–	–
HepG2 [11], 10 nM	–	–	108	–	–
HepG2 [11], 100 nM	–	–	104	–	–
HepG2 [11], 1000 nM	–	–	39.5	–	–
HepG2 [11], 10000 nM	–	–	-0.3	–	–
U2OS [10], 1 nM	–	–	98.1	–	–
U2OS [10], 10 nM	–	–	104	–	–
U2OS [10], 100 nM	–	–	103	–	–
U2OS [10], 1000 nM	–	–	104	–	–
U2OS [10], 10000 nM	–	–	1	–	–
Vero E6 [13], 1 nM	–	–	96.9	–	–
Vero E6 [13], 10 nM	–	–	99	–	–
Vero E6 [13], 100 nM	–	–	94.7	–	–
Vero E6 [13], 1000 nM	–	–	96.6	–	–
Vero E6 [13], 10000 nM	–	–	63.9	–	–
[14], 0.1 µM	–	–	–	0.25	–
[14], 0.3 µM	–	–	–	-0.15	–
[14], 1 µM	–	–	–	0.65	–
[14], 3 µM	–	–	–	0.16	–
[16], 0.1 µM	–	106	–	–	–
[16], 0.3 µM	–	95	–	–	–
[16], 1 µM	–	106	–	–	–
[16], 3 µM	–	34	–	–	–
[17], 0.1 µM	91	–	–	–	–
[17], 0.3 µM	101	–	–	–	–
[17], 1 µM	59	–	–	–	–
[17], 3 µM	24	–	–	–	–

Conditions	drug sensitivity score	relative viability EC50 [µM]
Caco-2 [4]	4.9	–
Caco-2 [18]	–	3.12
Calu-3 [2]	–	3.48
Calu-3 [7]	5	–
HepG2 [6]	12.6	–
HepG2 [20]	–	0.844
U2OS [5]	5.2	–
U2OS [19]	–	3.39
Vero E6 [8]	2.3	–

drug-induced phospholipidosis [%], A549-ACE2 [15]
Conditions	0.3 µM	0.833333 µM	3.33333 µM	6.66667 µM
24 h	6.15	4.67	40.2	55.8
48 h	5.31	4.66	44.4	77.3
72 h	4.09	2.03	32.5	76.8

Cc1cccc(/C=N/Nc2cc(N3CCOCC3)nc(OCCc3ccccn3)n2)c1 [STA-5326]
Conditions	SARS-CoV-2 infection rate [%]	cell count [%]	cell viability [%]	morphology score	phospholipidosis EC50 [µM]
A549-ACE2 [1], 24 h	–	–	–	–	0.3
A549-ACE2 [1], 48 h	–	–	–	–	0.809
A549-ACE2 [1], 72 h	–	–	–	–	0.687
Caco-2 [9], 1 nM	–	–	91.2	–	–
Caco-2 [9], 10 nM	–	–	96.4	–	–
Caco-2 [9], 100 nM	–	–	94.7	–	–
Caco-2 [9], 1000 nM	–	–	78.9	–	–
Caco-2 [9], 10000 nM	–	–	60.8	–	–
Calu-3 [12], 1 nM	–	–	104	–	–
Calu-3 [12], 10 nM	–	–	104	–	–
Calu-3 [12], 100 nM	–	–	97.9	–	–
Calu-3 [12], 1000 nM	–	–	93.6	–	–
Calu-3 [12], 10000 nM	–	–	90.1	–	–
HepG2 [11], 1 nM	–	–	99.3	–	–
HepG2 [11], 10 nM	–	–	88.2	–	–
HepG2 [11], 100 nM	–	–	93	–	–
HepG2 [11], 1000 nM	–	–	26.2	–	–
HepG2 [11], 10000 nM	–	–	19.7	–	–
U2OS [10], 1 nM	–	–	97.6	–	–
U2OS [10], 10 nM	–	–	100	–	–
U2OS [10], 100 nM	–	–	95	–	–
U2OS [10], 1000 nM	–	–	91.3	–	–
U2OS [10], 10000 nM	–	–	75.1	–	–
Vero E6 [13], 1 nM	–	–	97.2	–	–
Vero E6 [13], 10 nM	–	–	104	–	–
Vero E6 [13], 100 nM	–	–	93.8	–	–
Vero E6 [13], 1000 nM	–	–	42.4	–	–
Vero E6 [13], 10000 nM	–	–	43.2	–	–
[14], 0.3 µM	–	–	–	-0.01	–
[14], 3 µM	–	–	–	-0.14	–
[14], 10 µM	–	–	–	0	–
[14], 30 µM	–	–	–	0.18	–
[16], 0.3 µM	–	104	–	–	–
[16], 3 µM	–	95	–	–	–
[16], 10 µM	–	106	–	–	–
[16], 30 µM	–	108	–	–	–
[17], 0.3 µM	51	–	–	–	–
[17], 3 µM	77	–	–	–	–
[17], 10 µM	91	–	–	–	–
[17], 30 µM	35	–	–	–	–

Conditions	drug sensitivity score	relative viability EC50 [µM]
Caco-2 [4]	4.2	–
Calu-3 [2]	–	> 10
Calu-3 [7]	0	–
HepG2 [6]	14.6	–
HepG2 [20]	–	0.308
U2OS [5]	1.5	–
U2OS [19]	–	> 10
Vero E6 [3]	–	0.228
Vero E6 [8]	11.6	–

drug-induced phospholipidosis [%], A549-ACE2 [15]
Conditions	0.3 µM	0.833333 µM	3.33333 µM	6.66667 µM	10 µM	30 µM
24 h	103	105	105	124	111	85.7
48 h	104	80.8	58.2	63.7	66	–
72 h	113	59.5	34.8	46.3	59.3	–
